Results published in patent publication US8785416B2, “Sulphated disaccharides for the treatment of neurodegenerative and/or neurovascular diseases” (Bioiberica, S.A., priority 2009, dated 2014).

Experiments:
[1] = test system: SH-SY5Y human neuroblastoma cell line; assay: Cell toxicity study, LDH release, SH-SY5Y cells incubated 48 hours; format: cell-based; conditions: 100 μM, 48 hours incubation
Procedure: The cell toxicity studies were performed on the SH-SY5Y human neuroblastoma cell line, incubating said cells for 48 hours with the compound under study. The cell viability was assessed by quantifying the release of lactate dehydrogenase (LDH), which is a cytoplasmic enzyme which is released into the extracellular medium when the integrity of the cytoplasmic membrane is lost.

[2] = test system: SH-SY5Y human neuroblastoma cells; assay: Neuroprotection against cell death induced by rotenone plus oligomycin-A (oxidative stress), LDH release; format: cell-based
Procedure: An oxidative stress model consists of blocking mitochondrial respiratory chain complexes I and V by means of the combination of rotenone plus oligomycin-A, respectively. As a result of the interruption of the mitochondrial respiratory chain, the cell is unable to continue producing ATP, and the free radicals are generated exceeding the capacity of the cell to neutralize them, and as a result, cell death occurs.
SH-SY5Y human neuroblastoma cells were cultured in a monolayer in 75 cm^2 flasks with a vented stopper. The culture medium used was Dulbecco's Modified Eagle's Medium (DMEM) with a high glucose content ([…]) and supplemented with 10% foetal bovine serum, 2 mM L-Glutamine, 50 IU/mL penicillin and 50 μg/mL streptomycin.
The cell cultures were maintained in an incubator at 37° C. in a humid environment, with 5% CO2 and 95% air. The culture medium was changed twice a week, performing 1:4 passages when the cells reached 70-80% confluence. To perform the passages, the cells were detached by means of their treatment with trypsin-EDTA.
For the cell viability assays, the cells were seeded in sterile 48-well plates at a density of 80,000 cells/well. The experiments were performed 24-48 hours after their seeding.
To evaluate the neuroprotective effect of the compounds, the SH-SY5Y cells were preincubated for 24 hours with the compound under study, and subsequently incubated for 24 hours with the compound under study in the presence of the toxic substances (a combination of 10 μM rotenone and 1 μM oligomycin-A); at the end of this period the cell viability was evaluated by quantifying the release of the LDH enzyme.
The assessment of this enzyme was performed by means of a commercial kit (Cytotoxicity detection kit-LDH; Roche) following the instructions of the company. The samples were colorimetrically analyzed in a plate reader (Labsystems iEMS Reader MF), using the suitable filter at 490-600 nm and obtaining the absorbance values.
The % of cell death was defined as the % of LDH released into the extracellular medium with respect to the total (sum of intra- and extracellular LDH).
Compounds Ic and Ib were studied at four concentrations (0.001, 0.003, 0.01 and 0.03 μM), chondroitin sulphate (supplied by Bioibérica, S.A.) was assayed at two concentrations (10 and 60 μM) and trolox (Sigma Aldrich) was assayed at two concentrations (30 and 300 μM). The experiment also included the baseline (SH-SY5Y cells in the absence of compound and of toxic stimulus) and the control (SH-SY5Y cells cultured in the absence of compound and in the presence of the toxic stimulus rotenone plus oligomycin).

[3] = test system: mice (photothrombotic stroke model); assay: Experimental photothrombotic stroke model, cortical infarction volume; format: in vivo, mouse; conditions: 10 mg/kg i.p.
Excerpt: Neuronal death occurs during brain ischemia or stroke; therefore a medicament with a neuroprotective profile can have a therapeutic potential in patients who have suffered from a cerebral infarction or stroke. To explore if the compounds of formula (I) can offer neuroprotection in vivo, the experimental photothrombotic stroke model was used. In the photothrombosis model a focal cerebral infarction is induced in the area of the cortex illuminated by means of a cold light source in mice previously treated with the Rose Bengal stain; this stain is photosensitive and produces free radicals when it is stimulated with light, causing lesions in the surrounding vascular endothelium, which causes platelet aggregation and the formation of thrombi in the microvessels of the cerebral cortex (Non-invasive induction of focal cerebral ischemia in mice by photothrombosis of cortical microvessels: characterization of inflammatory responses, M. Schroeter et al., J Neurosci Methods. 117(1), 43-49. (2002); Melatonin reduces infarction volume in a photothrombotic stroke model in the wild-type but not cyclooxygenase-1-gene knockout mice, L Y. Zhou et al., J Pineal Res. 41(2), 150-156. (2006)).
Adult male Swiss breed mice from Harlan laboratories (Barcelona), with a weight of about 30 g, were used. Once anaesthetised with isoflurane, the mice were placed in a stereotaxic frame, maintaining their rectal temperature at 37±0.5° C. during the entire procedure. Subsequently, the cranium was exposed by means of a dorsomedial incision in the skin and the periosteum was removed. By means of the use of a micromanipulator, a fibre-optic cable was placed to emit a beam of light of 1.9 mm in diameter and 3000° K, connected to a cold light source (Zeiss KL 1500), in 2.0 mm posterior and 3.0 mm lateral to Bregma on the right side. According to the mouse brain atlas (Franklin and Paxinos, 1986), the sensitive-motor cortex, the putamen caudate and the hippocampus are right below this stereotaxic position. Then, the mice were injected with 1 mg of the Rose Bengal photosensitive probe and the brain was illuminated through the intact cranium for 30 minutes. Finally, the skin was sutured and the animals were left in a cage until their recovery under observation.
The animals were sacrificed by decapitation 72 hours after the ischemia. […]
To quantify the cortical cerebral infarction volume, the sections stained with TTC were scanned on both their rostral and caudal part and by means of the image analysis programme ImageJ 1.41 (National Institutes of Health, Bethesda, Md., USA) the area of the ipsi-, contralateral cortex and the cerebral infarction of each of the sections scanned, both in the caudal and rostral part, was quantified. Subsequently, the cerebral infarction volume was calculated. […]

methyl 2-acetamido-2-deoxy-3-O-(β-D-glucopyranosyluronic acid)-4,6-di-O-sulpho-α-D-glucopyranoside, trisodium salt [compound Ic]
cell toxicity (release of LDH) [1]: did not show toxicity
maximum statistically significant protection against cell death (% of released LDH) induced by rotenone and oligomycin ([2]; 0.03 μM, 24 h preincubation + 24 h with 10 μM rotenone and 1 μM oligomycin-A): 47%
protective effect compared with chondroitin sulphate and trolox ([2]; Ic, Ib at 0.001-0.03 μM vs chondroitin sulphate 10 and 60 μM, trolox 30 and 300 μM): more effective than chondroitin sulphate and than trolox
cortical infarction volume ([3]; 24 h and 1 h before ischemia and twice a day after, 72 hours, saline 6.1±2.18%, mean and standard deviation): 2.8±1.95%
protection (reduction of cortical infarction volume) ([3]; p<0.001 vs saline): 53%
